Structures are written as SMILES.

For the assay, the target named is human CRTH2 receptor (Homo sapiens (Human), UniProt Q9Y5Y4). The experiment in a line: CRTH2 receptor radioligand binding assay (SPA, [3H]-PGD2 displacement). As to conditions: [3H]-PGD2 1 nM, CHO-K1-hCRTH2 cell membranes, SPA format, 3 h room temperature. On the procedure: The binding of CRTH2 antagonists is determined using membranes prepared from Chinese hamster ovary cells (CHO-K1 cells) transfected with the human CRTH2 receptor (CHO-K1-hCRTH2 cells, Perkin Elmer, Cat No ES-561-C). To produce cell membranes the CHO-K1-hCRTH2 cells are cultured in suspension in CHO SFMII medium supplemented with 400 μg/ml G418. The cells are harvested by centrifugation at 300 g for 10 min at room temperature. The cell pellet is resuspended in Phosphate Buffer Saline (PBS) including a protease inhibitor mix (Complete, Roche) and adjusted to a concentration of 10E7 cells/ml. The CHO-K1-hCRTH2 cells are disrupted by nitrogen […] to obtain the membrane preparation. Cell debris is removed by centrifugation (500 g at 4° C., 30 min) and the supernatant is transferred into fresh tubes followed by a second centrifugation at 40000 g for 1 h at 4° C. to sediment the membranes. The membranes are suspended in SPA incubation buffer (50 mM Tris HCl, 10 mM MgCl2, 150 mM NaCl, 1 mM EDTA, pH 7.4) without bovine serum albumin, homogenized by passing through a single use needle (Terumo, 23G×1″), and stored in aliquots at −80° C.
human CRTH2 receptor, sequence (Q9Y5Y4 whole entry): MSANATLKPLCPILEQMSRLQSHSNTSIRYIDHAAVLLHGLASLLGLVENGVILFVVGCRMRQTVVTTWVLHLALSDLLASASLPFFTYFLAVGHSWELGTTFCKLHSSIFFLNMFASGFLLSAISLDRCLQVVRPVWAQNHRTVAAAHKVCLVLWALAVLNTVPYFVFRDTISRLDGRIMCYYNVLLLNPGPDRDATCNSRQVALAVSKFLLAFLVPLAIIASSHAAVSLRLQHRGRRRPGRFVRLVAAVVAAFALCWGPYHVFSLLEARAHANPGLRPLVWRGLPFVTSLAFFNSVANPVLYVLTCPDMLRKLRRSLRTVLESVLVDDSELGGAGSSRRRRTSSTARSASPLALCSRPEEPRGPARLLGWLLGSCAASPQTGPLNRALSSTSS
The CRTH2 receptor binding assay is performed in a scintillation proximity assay (SPA) format with the radioligand [^3H]-PGD2 (Perkin Elmer, NET616000MC). CHO-K1-hCRTH2 cell membranes are again homogenized by passing through a single use needle (Terumo, 23G×1″) and diluted in SPA incubation buffer in suitable concentrations (0.5-10 μg protein/well). The SPA assay is set up in 96 well microtiter plates (Perkin Elmer, CatNo. 6005040) in SPA incubation buffer with a final volume of 200 μl per well and final concentration of 50 mM Tris-HCl, 10 mM MgCl2, 150 mM NaCl, 1 mM EDTA pH 7.4, 0.1% bovine serum albumin). The SPA assay mixture contains 60 μl of the membrane suspension, 80 μl of Wheat Germ Agglutinin coated PVT beads (GE Healthcare, RPNQ-0001, 0.3 mg/well), 40 μl of [3H]-PGD2 diluted in SPA buffer to a final concentration of 1 nM (50 000 dpm) and 20 μl of the test compound (dissolved in dimethylsulfoxid). The SPA assay mixture is incubated for 3 h at room temperature. Bound radioactivity is determined with a scintillation counter (Micro Beta Trilux, Wallac).
The binding of [^3H]-PGD2 to CHO-K1-hCRTH2 cell membranes is determined in the absence (total binding, Bo) and presence (non-specific binding, NSB) of unlabelled PGD2 (1 μM, Cayman Chemical, Cat No 12010) or a reference CRTH2 antagonist (10 μM CAY10471, Cayman Chemical, Cat No 10006735).
Determination of the affinity of a test compound is calculated by subtraction of the non-specific binding (NSB) from the total binding (Bo) or the binding in the presence of the test compound (B) at a given compound concentration. […] The Bo-NSB value is set to 0% inhibition.
As to `CCCc1nn(Cc2ccc(NC(=O)c3ccc(Cl)c(Cl)c3)cc2)c(C(C)C)c1CC(=O)O` [Example 2.40], the Ki (in general, the equilibrium dissociation constant of an inhibitor or competing ligand from its target) is 200 pM.

In turn, `CCCc1nn(Cc2ccc(NC(=O)c3ccc(Cl)cc3C)cc2)c(C(C)C)c1CC(=O)O` [Example 2.38] gave a Ki of 1000 pM.

The molecule `CCCc1nn(Cc2ccc(NC(=O)c3ccc(C(F)(F)F)cc3C)cc2)c(C(C)C)c1CC(=O)O` [Example 2.36] gave a Ki of 700 pM.

The molecule `CCCc1nn(Cc2ccc(NC(=O)c3ccc(Cl)cc3)cc2)c(C(C)C)c1CC(=O)O` [Example 2.37] yielded a Ki of 400 pM.

Take `CCCc1nn(Cc2ccc(NC(=O)c3ccccc3)cc2)c(C(C)C)c1CC(=O)O` [Example 2.39]: the affinity corresponds to a Ki of 1600 pM. This Ki is about 4-fold higher than that of the molecule before.

Turning to `Cc1nn(Cc2ccc(/C=C/c3ccc(C(F)(F)F)cc3)cc2)c(C)c1CC(=O)O` [Example 12.2, (3,5-Dimethyl-1-{4-[(E)-2-(4-trifluoromethyl-phenyl)-vinyl]-benzyl}-1H-pyrazol-4-yl)-acetic acid], the affinity, expressed as Ki, was 56300 pM.

`CCCc1nn(Cc2ccc(NC(=O)c3ccc(C(F)(F)F)cc3)cc2)c(C(C)C)c1CC(=O)O` [Example 2.41] returned a Ki of 200 pM.

Molecule `CCc1nn(Cc2ccc(OCc3ccc(Cl)c(C(F)(F)F)c3)cc2)c(CC)c1CC(=O)O` [Example 13.7] had a Ki of 4800 pM.

Consider `CCCc1nn(Cc2ccc(NC(=O)c3ccc4ccccc4c3)cc2)c(C(C)C)c1CC(=O)O` [Example 2.42], for which the affinity corresponds to a Ki of 100 pM.

The values above are taken from patent US8791272B2, “Pyrazole compounds as CRTH2 antagonists” (Boehringer Ingelheim International GmbH, priority 2011, dated 2014).
